In patent US20250108038A1 (priority 2023, published 2025):
“And” between values parts separate entries of the source, which are not always exact repeats. Equal entries are not always repeated.

Test system: Long Evans rats
Assay: Behavioral satiety sequence (BSS)
Format: in vivo, Long Evans rat
Excerpt: The Behavioural Satiety Sequence (BSS) is a technique used to evaluate physiological satiety. It is based on the expression of a sequence of behaviors including eating, grooming, locomotor activity, followed by resting, which are typically observed in rodents post-ingestion (Halford et al, 1998, Pharmacology Biochemistry and Behaviour. 61(2): 159-168). The BSS is a widely used model for determining the effects of novel pharmaceuticals on food intake and measures of satiety in rodents (Oliveira et al, 2011, Revista de Nutrição. 24(4) 619-628), and to discriminate the cause of reduced food intake following pharmacological manipulation. For example, treatments that may reduce food intake by non-specific mechanisms, such as immobility, malaise, and taste adulteration, will disrupt this sequence (Halford et al, 1998, Pharmacology Biochemistry and Behaviour. 61(2): 159-168).
Specifically, 12 male Long-Evans rats were food-deprived for 22 h with a 2 h feeding period each day. Rats were trained to consume daily food during the 2 h period over 25 days. The testing phase was initiated once the rats consistently consumed 16-18 g of food per day with ≤10% variance in amount of feed consumed. Feeding took place in designated individual boxes in a quiet room separate from the housing room. Continuous remote monitoring via video camera during feeding was used to assess the BSS. Food consumption was measured by weighing the total available food before and after the 2 h feeding window, correcting for spillage. Lorcaserin (1 mg/kg) was included as a reference control (Higgins et al, 2011, Neuropsychopharmacology. 37(5): 1177-1191). Subjects were tested using a repeated-measures, Latin square design with 2-3 days wash-out between treatment cycles.
On scheduled test days, animals were monitored remotely via video camera during the feeding access period. The occurrence of four mutually exclusive behaviors (eating/drinking, grooming, active, rest) were individually scored. Over the 2 h feeding period, behaviors were assessed every 30 seconds. Scores were compiled into 23 5 min timebins (timebin 24 was removed due to early removal of animals) and the frequency of each behavior within each timebin was calculated to determine a temporal frequency of each measure (Rodgers et al, 2010, Pharmacology Biochemistry and Behaviour. 97: 3-14). Percentage time was plotted for each behavioral sequence in each timebin to compare between treatment groups (Higgins et al, 2011, Neuropsychopharmacology. 37(5): 1177-1191).

[1] = Compound I-19 1 mg/kg, AVG of 12 animals
[2] = Compound I-19 1 mg/kg, raw score of individual animals LT-1 to LT-12
[3] = Compound I-19 3 mg/kg i.p., AVG of the group
[4] = Compound I-19 3 mg/kg i.p., raw score per animal

## Clc1ccc(C2(OCC3OCCO3)c3ccccc3C3=NCCN32)cc1 (stereo not drawn) [Compound I-19]
[1]
  BSS scoring R (resting), Time Bin 13 (60-65 TOTAL), AVG: 0.13
  BSS scoring R (resting), Time Bin 14 (65-70 TOTAL), AVG: 0.10
  BSS scoring R (resting), Time Bin 15 (70-75 TOTAL), AVG: 0.13
  BSS scoring R (resting), Time Bin 16 (75-80 TOTAL), AVG: 0.18
  BSS scoring R (resting), Time Bin 17 (80-85 TOTAL), AVG: 0.14
  BSS scoring R (resting), Time Bin 18 (85-90 TOTAL), AVG: 0.30
[2]
  BSS scoring A (active), Time Bin 13 (60-65 TOTAL): 2 and 1 (3×) and 0 (6×) and 3 (2×)
  BSS scoring A (active), Time Bin 14 (65-70 TOTAL): 0 (4×) and 1 (4×) and 2 and 3 (2×) and 4
  BSS scoring A (active), Time Bin 15 (70-75 TOTAL): 0 (4×) and 2 (4×) and 1 (2×) and 5 (2×)
  BSS scoring A (active), Time Bin 16 (75-80 TOTAL): 1 (3×) and 2 and 0 (5×) and 4 (2×) and 6
  BSS scoring A (active), Time Bin 17 (80-85 TOTAL): 9 and 0 (5×) and 4 and 2 and 3 and 1 (3×)
  BSS scoring A (active), Time Bin 18 (85-90 TOTAL): 1 (3×) and 0 (5×) and 4 and 3 and 2 (2×)
  BSS scoring E (eating/drinking), Time Bin 13 (60-65 TOTAL): 8 (2×) and 6 (3×) and 10 (3×) and 0 and 9 (2×) and 5
  BSS scoring E (eating/drinking), Time Bin 14 (65-70 TOTAL): 10 (3×) and 8 (2×) and 9 and 1 and 7 (3×) and 5 and 6
  BSS scoring E (eating/drinking), Time Bin 15 (70-75 TOTAL): 10 (2×) and 8 (3×) and 7 (2×) and 6 and 3 (2×) and 4 (2×)
  BSS scoring E (eating/drinking), Time Bin 16 (75-80 TOTAL): 7 (3×) and 9 (2×) and 10 (2×) and 0 and 1 and 8 and 6 and 3
  BSS scoring E (eating/drinking), Time Bin 17 (80-85 TOTAL): 1 (2×) and 10 (3×) and 6 and 8 (2×) and 0 and 9 (3×)
  BSS scoring E (eating/drinking), Time Bin 18 (85-90 TOTAL): 9 (2×) and 6 and 7 (3×) and 1 (2×) and 0 (2×) and 8 and 10
  BSS scoring G (grooming), Time Bin 13 (60-65 TOTAL): 0 (7×) and 2 (2×) and 1 (3×)
  BSS scoring G (grooming), Time Bin 14 (65-70 TOTAL): 0 (8×) and 1 (4×)
  BSS scoring G (grooming), Time Bin 15 (70-75 TOTAL): 0 (9×) and 1 and 3 and 2
  BSS scoring G (grooming), Time Bin 16 (75-80 TOTAL): 2 and 1 and 0 (10×)
  BSS scoring G (grooming), Time Bin 17 (80-85 TOTAL): 0 (11×) and 1
  BSS scoring G (grooming), Time Bin 18 (85-90 TOTAL): 0 (8×) and 1 (4×)
  BSS scoring R (resting), Time Bin 13 (60-65 TOTAL): 0 (7×) and 1 (3×) and 10 and 2
  BSS scoring R (resting), Time Bin 14 (65-70 TOTAL): 0 (8×) and 8 and 2 and 1 (2×)
  BSS scoring R (resting), Time Bin 15 (70-75 TOTAL): 0 (5×) and 2 (2×) and 1 (3×) and 4 and 5
  BSS scoring R (resting), Time Bin 16 (75-80 TOTAL): 0 (6×) and 2 (2×) and 10 and 5 and 1 (2×)
  BSS scoring R (resting), Time Bin 17 (80-85 TOTAL): 0 (9×) and 2 and 5 and 10
  BSS scoring R (resting), Time Bin 18 (85-90 TOTAL): 0 (5×) and 1 (2×) and 2 and 7 (2×) and 8 and 10
[3]
  BSS scoring A (active), Time Bin 1 (0-5 TOTAL), AVG: 0.11
  BSS scoring A (active), Time Bin 2 (5-10 TOTAL), AVG: 0.02
  BSS scoring A (active), Time Bin 3 (10-15 TOTAL), AVG: 0.11
  BSS scoring A (active), Time Bin 4 (15-20 TOTAL), AVG: 0.13
  BSS scoring A (active), Time Bin 5 (20-25 TOTAL), AVG: 0.06
  BSS scoring A (active), Time Bin 6 (25-30 TOTAL), AVG: 0.11
  BSS scoring E (eating/drinking), Time Bin 1 (0-5 TOTAL), AVG: 0.86
  BSS scoring E (eating/drinking), Time Bin 2 (5-10 TOTAL), AVG: 0.93
  BSS scoring E (eating/drinking), Time Bin 3 (10-15 TOTAL), AVG: 0.87
  BSS scoring E (eating/drinking), Time Bin 4 (15-20 TOTAL), AVG: 0.83
  BSS scoring E (eating/drinking), Time Bin 5 (20-25 TOTAL), AVG: 0.88
  BSS scoring E (eating/drinking), Time Bin 6 (25-30 TOTAL), AVG: 0.84
  BSS scoring G (grooming), Time Bin 1 (0-5 TOTAL), AVG: 0.03
  BSS scoring G (grooming), Time Bin 2 (5-10 TOTAL), AVG: 0.03
  BSS scoring G (grooming), Time Bin 3 (10-15 TOTAL), AVG: 0.01
  BSS scoring G (grooming), Time Bin 4 (15-20 TOTAL), AVG: 0.02
  BSS scoring G (grooming), Time Bin 5 (20-25 TOTAL), AVG: 0.05
  BSS scoring G (grooming), Time Bin 6 (25-30 TOTAL), AVG: 0.01
  BSS scoring R (resting), Time Bin 1 (0-5 TOTAL), AVG: 0.00
  BSS scoring R (resting), Time Bin 2 (5-10 TOTAL), AVG: 0.02
  BSS scoring R (resting), Time Bin 3 (10-15 TOTAL), AVG: 0.02
  BSS scoring R (resting), Time Bin 4 (15-20 TOTAL), AVG: 0.02
  BSS scoring R (resting), Time Bin 5 (20-25 TOTAL), AVG: 0.02
  BSS scoring R (resting), Time Bin 6 (25-30 TOTAL), AVG: 0.04
[4]
  BSS scoring A (active), Time Bin 1 (0-5 TOTAL): 2 and 1 (8×) and 3 and 0 (2×)
  BSS scoring A (active), Time Bin 2 (5-10 TOTAL): 1 (2×) and 0 (10×)
  BSS scoring A (active), Time Bin 3 (10-15 TOTAL): 2 (4×) and 1 (2×) and 0 (5×) and 3
  BSS scoring A (active), Time Bin 4 (15-20 TOTAL): 0 (6×) and 3 (2×) and 2 and 6 and 1 (2×)
  BSS scoring A (active), Time Bin 5 (20-25 TOTAL): 1 (7×) and 0 (5×)
  BSS scoring A (active), Time Bin 6 (25-30 TOTAL): 2 (2×) and 1 (5×) and 0 (4×) and 4
  BSS scoring E (eating/drinking), Time Bin 1 (0-5 TOTAL): 8 (4×) and 9 (6×) and 7 and 10
  BSS scoring E (eating/drinking), Time Bin 2 (5-10 TOTAL): 8 (3×) and 10 (7×) and 9 (2×)
  BSS scoring E (eating/drinking), Time Bin 3 (10-15 TOTAL): 8 (4×) and 9 (2×) and 10 (4×) and 7 (2×)
  BSS scoring E (eating/drinking), Time Bin 4 (15-20 TOTAL): 9 (2×) and 7 (2×) and 10 (4×) and 8 (3×) and 4
  BSS scoring E (eating/drinking), Time Bin 5 (20-25 TOTAL): 9 (4×) and 10 (3×) and 8 (4×) and 7
  BSS scoring E (eating/drinking), Time Bin 6 (25-30 TOTAL): 8 (2×) and 9 (3×) and 10 (4×) and 5 and 7 and 6
  BSS scoring G (grooming), Time Bin 1 (0-5 TOTAL): 0 (9×) and 1 (2×) and 2
  BSS scoring G (grooming), Time Bin 2 (5-10 TOTAL): 1 (2×) and 0 (9×) and 2
  BSS scoring G (grooming), Time Bin 3 (10-15 TOTAL): 0 (11×) and 1
  BSS scoring G (grooming), Time Bin 4 (15-20 TOTAL): 0 (10×) and 1 (2×)
  BSS scoring G (grooming), Time Bin 5 (20-25 TOTAL): 0 (6×) and 1 (6×)
  BSS scoring G (grooming), Time Bin 6 (25-30 TOTAL): 0 (11×) and 1
  BSS scoring R (resting), Time Bin 1 (0-5 TOTAL): 0
  BSS scoring R (resting), Time Bin 2 (5-10 TOTAL): 0 (10×) and 1 (2×)
  BSS scoring R (resting), Time Bin 3 (10-15 TOTAL): 0 (11×) and 2
